Results on 1 substance are retold here after US6461845B1, “Recombinant hepatitis C virus RNA replicase” (Emory University, priority 1995, dated 2002).

Data set [1] concerns globin mRNA template. The data set can be described thus: RNA synthesis assay using a globin mRNA template. Format: biochemical. As to conditions: described reaction conditions. The procedure: (§1) Assay conditions for r-HCV-RDRP activity: The preferred conditions for assaying RDRP activity are described. The alternative conditions are operative, and designated as alternatives, in parentheses. Incubations were carried out 20 or 50 μl in final volumes that contain: 20-50 mM HEPES-pH 8.0 (alternative is 20 mM Tris-HCl;pH 7.5); 1.5-5 mM MnCl2; 100 mM ammonium acetate; 1-4 mM dithiothreitol (DDT), 500 μM each ATP, CTP, and GTP (alternative: 500 μM GTP and 250 μM each ATP and CTP); 10 μM UTP; 1-20 μCi of [α-^33P]UTP (alternative is to use [α-^32P]UTP or [^3H]UTP), 10-20 U of RNasin; and rHCV-RDRP protein. […]
(§2) Labeled nucleotides incorporated into RNA are precipitated by TCA. The precipitates are collected, washed and counted, e.g. in a scintillation counter to measure the quantity of RNA synthesized in the enzyme reaction. […] [^3H]poly(U) was quantitated by liquid scintillation spectrometry (LKB 1218 RackBeta). The synthesized RNA can also be analyzed by gel electrophoresis to determine the size of the synthesized RNA chains. For gel analysis the reaction mixture is inactivated with 100 μl of proteinase K buffer; digested with proteinase K, processed and the RNA products are analyzed by formaldehyde/agarose gel electrophoresis or 6% denaturing polyacrylamide-7 M urea gel electrophoresis.

Data set [2] in a line: isoelectric point of the enzyme. The format is physicochemical.
Data set [3] has as its system poly(A) template. As to the kind of experiment: poly(U) synthesis assay using a poly(A) template. Format: biochemical. As to conditions: described reaction conditions. The procedure:
as §1, §2

The nature of data set [4]: RNA synthesis by r-HCV-RDRP in vitro, Mg++ dependence. Format: biochemical. The procedure:
Both reactions were >90% primer-dependent under the described reaction conditions.
Assay conditions for r-HCV-RDRP activity: The preferred conditions for assaying RDRP activity are described. The alternative conditions are operative, and designated as alternatives, in parentheses. Incubations were carried out 20 or 50 μl in final volumes that contain: 20-50 mM HEPES-pH 8.0 (alternative is 20 mM Tris-HCl;pH 7.5); 1.5-5 mM MnCl2; 100 mM ammonium acetate; 1-4 mM dithiothreitol (DDT), 500 μM each ATP, CTP, and GTP (alternative: 500 μM GTP and 250 μM each ATP and CTP); 10 μM UTP; 1-20 μCi of [α-^33P]UTP (alternative is to use [α-^32P]UTP or [^3H]UTP), 10-20 U of RNasin; and rHCV-RDRP protein. Templates: 500-1000 ng of a preferred heteropolymeric template (e.g., either a 98 nt 3′-end of HCV genomic RNA or HCV RNA that included both the 5′ and 3′ ends of genomic or negative stranded HCV RNA) per 50 μl incubation; (as an alternative template, poly(A)/oligo(U) on either 20 μg/ml poly(A)460-600, and 10 μg/ml oligo (U)5-25 (or 0.8 μg of 10:1 mix of poly(A)/oligo(U) per 50 μl incubation can be employed). If the enzyme preparation is not >90-95 % pure include 50 μg/ml of actinomycin D. Incubations are for 15-120 min at 30° C. (or 22° C.). Note: stop incubations by adding 100 mM EDTA and then process for trichloroacetic acid (TCA) precipitation.

Some results are limits rather than exact numbers.

With “r-HCV-RDRP: Modified recombinant HCV RNA-dependent RNA polymerase (NS5B, type 1a) with N-terminal Met-Ala dipeptide, expressed in E. coli”, the “primer dependence of RNA synthesis” value in data set [1] is given as above 90%. Besides, the isoelectric point result in data set [2] is listed as “approximately 8.8”. For the same substance, the “primer dependence of poly(U) synthesis” value in data set [3] was above 90%. Further, the “Mg++ concentration giving maximal activity” value in data set [4] was “about 20 mM”. Moreover, in data set [4] (no Mg++), the “activity in the absence of Mg++” value is reported as “no detectable activity”.
